Experimental findings from US20240018119A1, “CARBOXAMIDE DERIVATIVE AND PHARMACEUTICAL COMPOSITION COMPRISING SAME AS ACTIVE INGREDIENT FOR PREVENTING OR TREATING MENTAL ILLNESS” (DAEGU-GYEONGBUK MEDICAL INNOVATION FOUNDATION, priority 2020, published 2024) are described below.

Common to all, as to assay type: cell-based
Assay [1] addresses T1, norepinephrine transporter (Homo sapiens, UniProt P23975).
T1 construct: expressed in transfected cells; host or cells: HEK-293
Nature of the assay: Norepinephrine reuptake inhibition in transporter-transfected HEK-293 cells ([3H]-NE). As to conditions: for Triple reuptake inhibition (Ratio %) NET: compound 1 μM, [3H]-NE, relative to control without compound (100%), lower = more inhibition; for IC50: concentration at which Ratio % is 50%, 6 concentrations 1 nM to 1 μM, read-out: Triple reuptake inhibition (IC50, μM) NET. On the procedure: (§1) To evaluate the reuptake inhibitory effect on dopamine, the dopamine transporter cDNA was transfected using the HEK-293 cell line, and then sub-seeded in a 24 well plate the next day. After removing the medium, each compound of the Examples or Comparative Examples diluted to 1 μM in uptake buffer was added to a concentration of 200 μl/well and cultured at 37° C. for 15 minutes. 100 μl of uptake buffer containing 20-30 nM [3H]-DA was added and cultured at 37° C. for 5 minutes. The reaction solution was quickly removed and washed three times with 1 ml ice-cold uptake buffer. After dissolving the resultant in 1% SDS (0.5 ml), the degree of binding of radioisotope-labeled dopamine to the transporter was measured.
(§2) For norepinephrine (NE) and serotonin (5-HT), the degree of binding of radioisotope-labeled norepinephrine or serotonin to the transporter was measured in the same manner as above, except that cells transfected with NE or 5-HT transporter cDNA were used and [3H]-NE or [3H]-5-HT was used as a substrate.
(§3) In addition, when evaluating the reuptake inhibitory effect on dopamine, norepinephrine, and serotonin, the same method was performed without treating each compound of the Examples or Comparative Examples as a control, the degree of binding of radioisotope-labeled dopamine, norepinephrine, and serotonin to the transporter was measured, and by using this as a standard (100%), the triple reuptake inhibitory effect was evaluated as a relative ratio (Ratio %). That is, in the control group, the binding of dopamine, norepinephrine, and serotonin to transporters is not inhibited, but when each compound of the Examples is treated and thus the binding is inhibited, the Patio % value decreases.
(§4) Meanwhile, the Patio % values were compared, and in the case of the compounds of Examples 6, 9, 10, 19, 20, 22, 24, 28, 30, 31, 32, 33, 35, 41, 42, 48, 49, 51, 55, 56, 59, 61, 63, 64, 65, 66, 74 and 76 with excellent reuptake inhibitory effects on dopamine, norepinephrine and serotonin, the concentration at which the Ratio % is 50% was calculated using a total of 6 concentrations (1 nM, 5 nM, 10 nM, 50 nM, 100 nM, and 1 μM) and expressed as IC50. In addition, in the case of the compound of Comparative Example 1, IC50 was obtained by the same method as the Example Compounds.

A further assay addresses T2, serotonin transporter (Homo sapiens, UniProt P31645).
T2 construct: expressed in transfected cells; host or cells: HEK-293
In words: Serotonin reuptake inhibition in transporter-transfected HEK-293 cells ([3H]-5-HT). Conditions: for Triple reuptake inhibition (Ratio %) SERT: compound 1 μM, [3H]-5-HT, relative to control without compound (100%), lower = more inhibition; for IC50: concentration at which Ratio % is 50%, 6 concentrations 1 nM to 1 μM, read-out: Triple reuptake inhibition (IC50, μM) SERT. As for the experimental part: as §1, §2, §3
In addition, in the case of the compound of Comparative Example 1, IC50 was obtained by the same method as the Example Compounds.

In another assay the target is T3, dopamine transporter (Homo sapiens, UniProt Q01959).
T3 construct: expressed in transfected cells; host or cells: HEK-293
In words: Dopamine reuptake inhibition in transporter-transfected HEK-293 cells ([3H]-DA). As to conditions: for Triple reuptake inhibition (Ratio %) DAT: compound 1 μM, 20-30 nM [3H]-DA, relative to control without compound (100%), lower = more inhibition; for IC50: concentration at which Ratio % is 50%, 6 concentrations 1 nM to 1 μM, read-out: Triple reuptake inhibition (IC50, μM) DAT. As for the experimental part: as §1, §3, §4

T2 sequence (P31645 whole entry): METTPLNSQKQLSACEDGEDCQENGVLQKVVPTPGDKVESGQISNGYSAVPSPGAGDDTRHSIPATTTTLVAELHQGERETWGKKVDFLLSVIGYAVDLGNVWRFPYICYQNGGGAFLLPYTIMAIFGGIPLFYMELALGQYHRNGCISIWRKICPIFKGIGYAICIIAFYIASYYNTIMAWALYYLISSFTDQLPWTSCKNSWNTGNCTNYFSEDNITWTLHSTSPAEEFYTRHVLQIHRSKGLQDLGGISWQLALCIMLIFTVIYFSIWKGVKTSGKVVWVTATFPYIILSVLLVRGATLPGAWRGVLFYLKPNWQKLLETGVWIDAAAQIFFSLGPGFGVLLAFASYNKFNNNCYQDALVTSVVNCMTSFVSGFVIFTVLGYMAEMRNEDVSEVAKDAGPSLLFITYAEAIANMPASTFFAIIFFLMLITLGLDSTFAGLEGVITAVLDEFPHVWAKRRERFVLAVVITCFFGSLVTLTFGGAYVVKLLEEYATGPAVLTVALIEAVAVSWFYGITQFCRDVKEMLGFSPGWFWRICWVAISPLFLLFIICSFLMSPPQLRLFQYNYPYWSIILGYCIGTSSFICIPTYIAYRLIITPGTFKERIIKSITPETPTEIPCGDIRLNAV
T1 sequence (P23975 whole entry, species assumed): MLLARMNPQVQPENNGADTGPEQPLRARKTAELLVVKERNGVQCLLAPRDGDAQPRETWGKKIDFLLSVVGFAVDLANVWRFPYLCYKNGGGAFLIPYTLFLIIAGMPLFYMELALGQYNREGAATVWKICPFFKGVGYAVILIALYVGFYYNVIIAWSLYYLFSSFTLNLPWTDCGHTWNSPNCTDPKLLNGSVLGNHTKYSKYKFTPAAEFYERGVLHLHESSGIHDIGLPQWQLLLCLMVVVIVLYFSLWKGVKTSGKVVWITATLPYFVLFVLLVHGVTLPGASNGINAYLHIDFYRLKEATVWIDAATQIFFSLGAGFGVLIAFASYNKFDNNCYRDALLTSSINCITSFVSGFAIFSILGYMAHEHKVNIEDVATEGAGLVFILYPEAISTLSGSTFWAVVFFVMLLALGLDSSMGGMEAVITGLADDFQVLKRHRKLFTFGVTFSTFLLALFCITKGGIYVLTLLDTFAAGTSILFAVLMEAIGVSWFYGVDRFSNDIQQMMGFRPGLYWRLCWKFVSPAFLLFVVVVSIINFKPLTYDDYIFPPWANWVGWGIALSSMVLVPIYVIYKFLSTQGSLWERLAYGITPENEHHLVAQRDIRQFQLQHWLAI
T3 sequence (Q01959 whole entry): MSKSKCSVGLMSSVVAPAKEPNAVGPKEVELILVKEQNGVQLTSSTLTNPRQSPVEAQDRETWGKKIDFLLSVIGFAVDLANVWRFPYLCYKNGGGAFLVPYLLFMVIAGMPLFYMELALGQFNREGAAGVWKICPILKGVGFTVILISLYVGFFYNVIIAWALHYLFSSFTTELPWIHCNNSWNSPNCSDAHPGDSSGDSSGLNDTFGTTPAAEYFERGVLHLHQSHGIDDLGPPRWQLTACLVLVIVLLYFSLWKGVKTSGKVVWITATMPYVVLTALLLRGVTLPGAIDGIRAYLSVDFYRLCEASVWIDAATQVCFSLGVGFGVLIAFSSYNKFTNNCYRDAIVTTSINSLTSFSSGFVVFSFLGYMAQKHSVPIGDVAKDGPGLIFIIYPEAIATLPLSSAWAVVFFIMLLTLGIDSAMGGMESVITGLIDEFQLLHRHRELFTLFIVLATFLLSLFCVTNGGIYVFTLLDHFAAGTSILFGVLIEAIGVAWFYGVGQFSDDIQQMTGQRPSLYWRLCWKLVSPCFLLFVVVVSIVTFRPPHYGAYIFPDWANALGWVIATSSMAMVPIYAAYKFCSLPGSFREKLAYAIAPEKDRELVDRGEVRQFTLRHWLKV

One may read the IC50 as the concentration that gives 50% inhibition. For the molecule `O=C(NCCN1CCN(Cc2ccc(Cl)c(Cl)c2)CC1)c1cc2ccccc2[nH]1` [Example 22, N-(2-(4-(3,4-dichlorobenzyl)piperazin-1-yl)ethyl)-1H-indol-2-carboxamide], the “Triple reuptake inhibition (Ratio %) NET” value in assay [1] was 91.21%. Further, on serotonin transporter, the “Triple reuptake inhibition (Ratio %) SERT” value worked out at 52.47% and the IC50 was > 10 µM. At dopamine transporter, the “Triple reuptake inhibition (Ratio %) DAT” value was 63.72%.
For `O=C(NCCN1CCN(c2cccc(Cl)c2Cl)CC1)c1cc2ccccc2[nH]1` [Example 23, N-(2-(4-(2,3-dichlorophenyl)piperazin-1-yl)ethyl)-1H-indol-2-carboxamide], in assay [1], the “Triple reuptake inhibition (Ratio %) NET” value is listed as 99.59%. For the same molecule, on serotonin transporter, the “Triple reuptake inhibition (Ratio %) SERT” value came out at 85.13%. Further, the “Triple reuptake inhibition (Ratio %) DAT” value at dopamine transporter came to 70.42%.
For the molecule `O=C(NCCN1CCN(c2ccc(Cl)c(Cl)c2)CC1)c1cc2ccccc2[nH]1` [Example 24, N-(2-(4-(3,4-dichlorophenyl)piperazin-1-yl)ethyl)-1H-indol-2-carboxamide], the “Triple reuptake inhibition (Ratio %) NET” value in assay [1] is recorded as 107.75%. At serotonin transporter, the “Triple reuptake inhibition (Ratio %) SERT” value is recorded as 59.92% and the half-inhibitory concentration (IC50) was > 10 µM. Besides, at dopamine transporter, the “Triple reuptake inhibition (Ratio %) DAT” value is given as 43.28% and the half-inhibitory concentration (IC50) is 8.03 µM.
Regarding `O=C(NCCN1CCN(Cc2ccccc2)CC1)c1cc2ccccc2[nH]1` [Example 25, N-(2-(4-benzylpiperazin-1-yl)ethyl)-1H-indol-2-carboxamide], the “Triple reuptake inhibition (Ratio %) NET” value in assay [1] worked out at 76.45%. The “Triple reuptake inhibition (Ratio %) SERT” value on serotonin transporter was determined as 97.46%. Moreover, the “Triple reuptake inhibition (Ratio %) DAT” value at dopamine transporter is 76.50%.
For `O=C(c1cc2ccccc2[nH]1)N1CCC(Cc2ccccc2)CC1` [Example 26, (4-benzylpiperidin-1-yl) (1H-indol-2-yl)methanone] the same measures were 92.07%, 113.81% and 124.32%.
On to `O=C(NCCN1CCC(Cc2ccc(F)c(F)c2)CC1)c1cc2ccccc2[nH]1` [Example 27, N-(2-(4-(3,4-difluorobenzyl)piperidin-1-yl)ethyl)-1H-indol-2-carboxamide], for which the “Triple reuptake inhibition (Ratio %) NET” value in assay [1] was found to be 69.72%. Moreover, the “Triple reuptake inhibition (Ratio %) SERT” value at serotonin transporter worked out at 75.39%. Moreover, the “Triple reuptake inhibition (Ratio %) DAT” value at dopamine transporter turned out to be 71.77%.
As to `O=C(NCCN1CCC(c2ccc(Cl)c(Cl)c2)CC1)c1cc2ccccc2[nH]1` [Example 28, N-(2-(4-(3,4-dichlorophenyl)piperidin-1-yl)ethyl)-1H-indol-2-carb oxamide], the “Triple reuptake inhibition (Ratio %) NET” value in assay [1] is given as 88.77%. The “Triple reuptake inhibition (Ratio %) SERT” value at serotonin transporter is 82.81%. Further, at dopamine transporter, the “Triple reuptake inhibition (Ratio %) DAT” value was determined as 37.16% and the IC50 is 0.225 µM.
As to `O=C(NCCN1CCN(CC2CCOCC2)CC1)c1cc2ccccc2[nH]1` [Example 29, N-(2-(4-((tetrahydro-2H-pyran-4-yl)methyl)piperazin-1-yl)ethyl)-1H-indol-2-carboxamide], the “Triple reuptake inhibition (Ratio %) NET” value in assay [1] stood at 97.94%. Also, the “Triple reuptake inhibition (Ratio %) SERT” value on serotonin transporter amounted to 94.24%. At dopamine transporter, the “Triple reuptake inhibition (Ratio %) DAT” value is given as 113.83%.
In the case of `O=C(NCCN1CCC(Cc2ccccc2)CC1)c1cc2cc(Br)ccc2[nH]1` [Example 30, N-(2-(4-benzylpiperidin-1-yl)ethyl)-5-bromo-1H-indol-2-carboxamide], in assay [1], the “Triple reuptake inhibition (Ratio %) NET” value is 94.09% and the IC50 stood at 7.91 µM. Further, the “Triple reuptake inhibition (Ratio %) SERT” value on serotonin transporter is 75.29%. Moreover, at dopamine transporter, the “Triple reuptake inhibition (Ratio %) DAT” value turned out to be 49.44% and the half-inhibitory concentration (IC50) came out at 0.984 µM.
For `O=C(NCCN1CCC(Cc2ccccc2)CC1)c1cc2cc(Cl)ccc2[nH]1` [Example 31, N-(2-(4-benzylpiperidin-1-yl)ethyl)-5-chloro-1H-indol-2-carboxamide] the same measures were 72.60%, 4.35 µM, 58.09%, 31.52% and 1.73 µM.
For the molecule `O=C(NCCN1CCC(Cc2ccccc2)CC1)c1cc2cc(F)c(F)cc2[nH]1` [Example 32, N-(2-(4-benzylpiperidin-1-yl)ethyl)-5,6-difluoro-1H-indol-2-carboxamide], in assay [1], the “Triple reuptake inhibition (Ratio %) NET” value is 66.78% and the IC50 amounted to 1.47 µM. In addition, on serotonin transporter, the “Triple reuptake inhibition (Ratio %) SERT” value worked out at 54.81% and the IC50 is 2.04 µM. Moreover, at dopamine transporter, the “Triple reuptake inhibition (Ratio %) DAT” value is 28.03% and the IC50 is 0.824 µM.
With `COc1ccc2[nH]c(C(=O)NCCN3CCC(Cc4ccccc4)CC3)cc2c1` [Example 33, N-(2-(4-benzylpiperidin-1-yl)ethyl)-5-methoxy-1H-indol-2-carboxamide], in assay [1], the “Triple reuptake inhibition (Ratio %) NET” value is reported as 65.51% and the half-maximal inhibitory concentration (IC50) is 1.7 µM. On serotonin transporter, the “Triple reuptake inhibition (Ratio %) SERT” value was 48.73% and the IC50 was 1.33 µM. On dopamine transporter, the “Triple reuptake inhibition (Ratio %) DAT” value is 25.55% and the half-maximal inhibitory concentration (IC50) worked out at 0.331 µM.
`CC(C)(CN1CCC(Cc2ccccc2)CC1)NC(=O)c1cc2ccccc2[nH]1` [Example 34, N-(1-(4-benzylpiperidin-1-yl)-2-methylpropan-2-yl)-1H-indol-2-carboxamide]: the “Triple reuptake inhibition (Ratio %) NET” value in assay [1] turned out to be 70.66%. Further, the “Triple reuptake inhibition (Ratio %) SERT” value on serotonin transporter was found to be 90.64%. Further, on dopamine transporter, the “Triple reuptake inhibition (Ratio %) DAT” value is reported as 55.54%.
For `O=C(NCCN1CCC(C(O)c2ccccc2)CC1)c1cc2ccccc2[nH]1` (centres unmarked) [Example 36, N-(2-(4-(hydroxy(phenyl)methyl)piperidin-1-yl)ethyl)-1H-indol-2-carboxamide] the same measures were 90.99%, 111.92% and 84.74%.
For `O=C(NCCN1CCC(c2c[nH]c3ccccc23)CC1)c1cc2ccccc2[nH]1` [Example 37, N-(2-(4-(1H-indol-3-yl)piperidin-1-yl)ethyl)-1H-indol-2-carboxamide] the same measures were 76.15%, 32.42% and 38.64%.
Regarding `O=C(NCCN1CCCC(Cc2ccccc2)C1)c1cc2ccccc2[nH]1` (centres unmarked) [Example 38, N-(2-(3-benzylpiperidin-1-yl)ethyl)-1H-indol-2-carboxamide], the “Triple reuptake inhibition (Ratio %) NET” value in assay [1] is listed as 70.02%. At serotonin transporter, the “Triple reuptake inhibition (Ratio %) SERT” value turned out to be 70.46%. Further, the “Triple reuptake inhibition (Ratio %) DAT” value at dopamine transporter was determined as 43.94%.
Regarding `O=C(NCCN1CCC(Cc2ccccc2)CC1)c1cc2c(Cl)cc(Cl)cc2[nH]1` [Example 39, N-(2-(4-benzylpiperidin-1-yl)ethyl)-4,6-dichloro-1H-indol-2-carboxamide], the “Triple reuptake inhibition (Ratio %) NET” value in assay [1] is on record as 63.99%. Also, the “Triple reuptake inhibition (Ratio %) SERT” value at serotonin transporter is recorded as 76.27%. In addition, the “Triple reuptake inhibition (Ratio %) DAT” value at dopamine transporter is 40.9%.
Consider `O=C(NCCN1CCC(Cc2ccccc2)CC1)c1cc2cc(C(F)(F)F)ccc2[nH]1` [Example 40, N-(2-(4-benzylpiperidin-1-yl)ethyl)-5-(trifluoromethyl)-1H-indol-2-carboxamide], for which the “Triple reuptake inhibition (Ratio %) NET” value in assay [1] came to 59.50%. For the same molecule, the “Triple reuptake inhibition (Ratio %) SERT” value on serotonin transporter is 92.65%. The “Triple reuptake inhibition (Ratio %) DAT” value at dopamine transporter was 35.13%.
In the case of `N#Cc1ccc2[nH]c(C(=O)NCCN3CCC(Cc4ccccc4)CC3)cc2c1` [Example 41, N-(2-(4-benzylpiperidin-1-yl)ethyl)-5-cyano-1H-indol-2-carboxamide], in assay [1], the “Triple reuptake inhibition (Ratio %) NET” value was determined as 31.85% and the IC50 worked out at 0.371 µM. At serotonin transporter, the “Triple reuptake inhibition (Ratio %) SERT” value is 48.50% and the IC50 was 0.525 µM. In addition, at dopamine transporter, the “Triple reuptake inhibition (Ratio %) DAT” value is 12.3% and the IC50 is 0.171 µM.
